{"source": "patent US20030237103A1", "about": "“Methods and compositions for pharmacological and toxicological evaluation of test agents” (priority 2002, published 2003)", "key": {"[1]": {"tested_on": "Panel, CD-IGS and parental rat strains", "test": "Kidney histology of gentamicin- and vehicle-treated rats", "description": "Arrows point to regions of the proximal tabules damage scored as follows: 0=no damage, 1=25% injured tubules, 2=50% injured tubules and protein casts in lumens, 3=severe injury of >50% of tubules, 4=nearly complete necrosis of all tubules. Representative histological samples from the outbred Sprague Dawley rat CD-IGS (Panel B) and the four inbred parental strains Brown Norway, Fischer 344, Lewis and Wistar Kyoto rats (Panel C) are also shown.\nWe sought to maximize the range of genetic susceptibility to the adverse drug effects across the strains."}, "[2]": {"tested_on": "Sprague Dawley, LEW and F344 rats", "conditions": "cited from earlier work"}}, "note": "Like-named read-outs stand apart in the source and are kept apart here."}
{"substance": "gentamicin", "values": [{"measurement": "damage to proximal tubules", "setting": "[1]; F1 hybrids except WKYxBN", "value": "≥ 50", "unit": "%"}, {"measurement": "kidney damage by histology", "setting": "[1]; LEW×F344 F1 rats, 240 mg/Kg/day", "value": "nearly complete necrosis of all proximal tubules"}, {"measurement": "effect on the kidney", "setting": "[1]; WKY rats", "value": "virtually no effect"}, {"measurement": "injured tubules", "setting": "[1]; WKY rats, both vehicle and gentamicin treated", "value": 25, "unit": "%"}, {"measurement": "renal damage by histology", "setting": "[1]; WKYxBN F1 strain", "value": "little renal damage"}, {"measurement": "tubules damaged", "setting": "[1]; gentamicin-treated parental strains except WKY", "value": "greater than 50%"}, {"measurement": "susceptibility to nephrotoxic effects", "setting": "[2]; F344 compared with SD", "value": "more susceptible"}, {"measurement": "nephrotoxic effects (protein in the urine)", "setting": "[2]; LEW strain", "value": "sensitive"}, {"measurement": "nephrotoxic effects (protein in the urine)", "setting": "[2]; Sprague Dawley rats", "value": "resistant"}]}
